# Data: patent US11407768B2, “AMPK activators” (Kallyope, Inc., priority 2020, dated 2022)
# Where a name gives a salt, the structure may show the parent alone.
# Tests used:
# [1] = system: Chemotherapy-induced Intestinal Injury Model; assay: Diarrhea in mouse chemotherapy-induced (5FU) intestinal injury model; assay type: in vivo, BALB/c mice; conditions: 5FU 400 mg/kg IP; for Diarrhea Score Day 5 / Diarrhea Score Day 6: score 0-3
# Procedure: Compounds were formulated in vehicle (0.25% methyl cellulose, 5% Tween 80, 0.02% sodium dodecyl sulfate (SDS) in Hanks' Buffered Salt Solution with Ca' and Mg'). On day 1, either saline or a 400 mg/kg dose of 5-fluorouracil (5FU) in saline was administered by intraperitoneal injection to BALB/c mice. Starting on day 2, vehicle or compound was administered twice a day by oral gavage. From days 5 to 6 post-5FU, the animals were scored for diarrhea severity once a day. The diarrhea was scored 0-3 as follows: 0—normal consistency (black and solid), 1—soft (black and a bit lighter/yellow), 2—loosely shaped stool (yellowish and somewhat watery), 3—extreme diarrhea (very watery).
# [2] = Pharmacokinetics (oral bioavailability) in C57BL/6 mice; conditions: mouse, in vivo; for bioavailability: IV 1 mg/kg, PO 30 mg/kg; for Vd: following IV administration, 1 mg/kg, read-out: volume of distribution
# Procedure: Selected compounds were tested for pharmacokinetics in C57BL/6 mice. Compounds 1, 4, 31, 32, 40, 55, 57 and 60 were dosed IV at 1 mg/kg as a formulation of 0.2 mg/mL in 5% DMSO+30% PEG400+65% water and were dosed PO at 30 mg/kg as a formulation of 3 mg/mL in 0.25% MC+5% Tween 80+0.02% SDS. Compound 2 was dosed IV at 1 mg/kg as a formulation of 0.2 mg/mL in 5% ethanol +95% saline and was dosed PO at 30 mg/kg as a formulation of 3 mg/mL in 0.25% MC+5% Tween 80+0.02% SDS.
# [3] = system: blood glucose levels; assay: Intraperitoneal (IP) glucose tolerance test in mice; assay type: in vivo; conditions: for % Change in Average Total AUC (0-90 min) vs. Vehicle: 30 mpk PO, blood glucose, glucose 2 g/kg IP; for change in blood glucose AUC vs. vehicle / systemic AMPK activation (in words): 30 mpk for all compounds, up to 100 mpk for Compound 4
# Excerpt: Systemic AMPK target engagement in vivo can be assessed by measuring the glucose levels in blood following administration of compounds, whereby AMPK activation in skeletal muscle leads in a decrease in overall blood glucose levels.
# Compounds were formulated in vehicle (0.25% methyl cellulose, 5% Tween 80, 0.02% sodium dodecyl sulfate (SDS) in Hanks' Buffered Salt Solution with Ca^2+ and Mg^2). Immediately prior to compound dosing, the tip of the tail was removed with scissors and a drop of blood was collected onto a glucometer strip (Bayer Contour Next) for a −1 hour blood glucose measure. The mice were then immediately administered vehicle or compound at 10 mL/kg PO. Approximately one hour later, mice were tail bled for a 0 min blood glucose reading, and then immediately after were administered D(+) glucose (2 g/kg, made up in saline) at 5 mL/kg IP. Tail bleeds were then performed on all mice at 20 min, 40 min, 60 min, and 90 min post D(+) glucose administration for blood glucose measures. Area under the curves (AUCs) for blood glucose measures were then calculated for each treatment from 0-90 mins.
# [4] = target: Recombinant AMPK α1/β1/γ1 complex (Homo sapiens (Human), UniProt Q13131+Q9Y478); assay: In vitro pAMPK1 kinase activation assay (ADP-Glo, SAMS peptide); assay type: biochemical; conditions: AMPK α1/β1/γ1 pre-activated with CAMKK2; 12-point curve; 15 min compound incubation
# Chain of Recombinant AMPK α1/β1/γ1 complex (Q13131 whole entry): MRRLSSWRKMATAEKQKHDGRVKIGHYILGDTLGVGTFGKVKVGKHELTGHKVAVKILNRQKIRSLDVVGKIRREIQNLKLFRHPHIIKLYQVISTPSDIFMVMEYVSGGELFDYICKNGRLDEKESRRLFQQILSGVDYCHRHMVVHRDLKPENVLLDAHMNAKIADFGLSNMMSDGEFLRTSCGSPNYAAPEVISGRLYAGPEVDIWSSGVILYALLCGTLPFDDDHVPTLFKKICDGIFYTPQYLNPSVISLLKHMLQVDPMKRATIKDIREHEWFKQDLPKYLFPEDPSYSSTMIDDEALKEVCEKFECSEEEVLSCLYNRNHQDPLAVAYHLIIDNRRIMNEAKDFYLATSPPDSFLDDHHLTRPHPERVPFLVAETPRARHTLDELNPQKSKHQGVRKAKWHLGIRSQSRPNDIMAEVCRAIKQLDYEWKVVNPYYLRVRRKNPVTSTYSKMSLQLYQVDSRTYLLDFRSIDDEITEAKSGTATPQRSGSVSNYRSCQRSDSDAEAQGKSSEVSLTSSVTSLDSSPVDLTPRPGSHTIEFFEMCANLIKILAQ
# Chain of Recombinant AMPK α1/β1/γ1 complex (Q9Y478 whole entry): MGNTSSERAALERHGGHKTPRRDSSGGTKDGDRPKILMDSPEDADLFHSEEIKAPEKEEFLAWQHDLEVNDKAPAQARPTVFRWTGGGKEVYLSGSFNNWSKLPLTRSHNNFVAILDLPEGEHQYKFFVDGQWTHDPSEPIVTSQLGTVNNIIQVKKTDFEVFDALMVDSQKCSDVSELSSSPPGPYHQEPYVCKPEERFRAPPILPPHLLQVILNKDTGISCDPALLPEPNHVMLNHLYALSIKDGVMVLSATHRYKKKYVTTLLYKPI
# Chain of Recombinant AMPK α1/β1/γ1 complex (P54619 whole entry partner): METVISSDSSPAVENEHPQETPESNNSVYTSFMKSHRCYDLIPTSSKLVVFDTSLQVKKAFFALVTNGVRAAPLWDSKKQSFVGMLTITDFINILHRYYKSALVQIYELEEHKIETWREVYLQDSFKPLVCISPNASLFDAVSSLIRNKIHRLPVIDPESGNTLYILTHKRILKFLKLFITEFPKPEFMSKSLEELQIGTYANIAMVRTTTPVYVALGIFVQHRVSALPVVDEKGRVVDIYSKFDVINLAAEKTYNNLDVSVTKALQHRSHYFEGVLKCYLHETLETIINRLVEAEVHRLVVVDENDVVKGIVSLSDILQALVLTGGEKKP
# Procedure: Compound effect on AMPK enzyme activation was determined in a cell-free format with a 12-point concentration curve. The ADP-Glo detection system was used to determine phosphorylation of a SAMS peptide substrate. Recombinant AMPK α1/β1/γ1 complex was pre-activated by phosphorylation with CAMKK2 followed by incubated with compound for 15 minutes prior to the SAMS phosphorylation reaction. Activity curves and EC50 values were fitted by interpolation to an ATP:ADP standard curve as indicated by the ADP-Glo manufacturer using Prism software.
# [5] = system: Caco-2 cells; assay: in vitro
# Procedure: (§1) Caco-2 cells purchased from ATCC were seeded onto […] (PET) in 96-well BD Insert plates at 1×10^5 cells/cm^2, and refreshed medium every 4-5 days until to the 21st to 28th day for confluent cell monolayer formation. The transport buffer in the study was HBSS with 10 mM HEPES at pH 7.40±0.05. Test compounds were tested at 2 μM bi-directionally in duplicate. Digoxin was tested at 10 μM bi-directionally in duplicate, while nadolol and metoprolol were tested at 2 μM in A to B direction in duplicate. Final DMSO concentration was adjusted to less than 1%.
# (§2) The plate was incubated for 2 hours in CO2 incubator at 37±1° C., with 5% CO2 at saturated humidity without shaking. All samples were mixed with acetonitrile containing internal standard and were centrifuged at 4000 rpm for 10 min. Subsequently, 100 μL supernatant solution was diluted with 100 μL distilled water for LC/MS/MS analysis. Concentrations of test and control compounds in starting solution, donor solution, and receiver solution were quantified by LC/MS/MS, using peak area ratio of analyte/internal standard.
# [6] = in vitro; conditions: human; for Papp A→B at 2 h, 2 μM / Papp B→A at 2 h, 2 μM: Caco-2, pH 7.4
# Procedure: as §1, §2
# [7] = system: Madin-Darby Canine Kidney (MDCK) cells; assay: In vitro MDCK epithelial permeability assay (calcium switch, FITC-dextran); assay type: cell-based; conditions: low calcium medium, MDCK monolayers
# Excerpt: In order to quantitatively measure the effects of transporter substrate AMPK activators on epithelial permeability in vitro, standard calcium switch protocols from the literature were adapted for use with Madin-Darby Canine Kidney (MDCK) cells grown on Corning Transwell inserts for use with fluorescein isothiocyanate-dextran, average molecular weight 4 kDa (FITC-dextran). FITC-dextran is a large, metabolically inert sugar molecule that is not readily transferrable across healthy epithelial barriers in vitro or in vivo. This compound has been tagged with a fluorophore to easily track its movement.
# Briefly, MDCK cells were seeded onto Transwell inserts and grown according to manufacturer instructions until confluent. On the day of the experiment, a baseline reading was taken in standard growth media in which FITC-dextran was spiked into the apical chamber and the percent permeation of FITC-dextran from the apical to the basolateral chamber was measured. The inserts were then washed in low calcium medium (LCM) containing either vehicle or compound to remove residual FITC-dextran and calcium, and FITC-dextran was once again spiked into the apical chamber and the percent permeation in LCM was measured. […] The fold induction of FITC-dextran permeation to the basolateral chamber when each well was transferred from baseline growth media to LCM was then calculated.
# [8] = system: Acute Dextran Sulfate Sodium (DSS) Colitis Model; assay: Intestinal barrier function in mouse acute DSS colitis model (FITC-dextran); assay type: in vivo, C57B1/6 mice; conditions: 30 mg/kg QD oral; 3% DSS 7 days; serum FITC-dextran
# Procedure: Compounds were formulated in vehicle (0.25% methyl cellulose, 5% Tween 80, 0.02% sodium dodecyl sulfate (SDS) in Hanks' Buffered Salt Solution with Ca^2+ and Mg^2+). Vehicle or compound was administered once daily by oral gavage to C57B1/6 mice. After 3 days of pre-dosing, dextran sulfate sodium (DSS) was simultaneously administered at 3% in drinking water, and appropriate water-only controls were included.
# After 7 days of DSS administration, animals treated were switched back to their regular water source and administered a single oral bolus dose of FITC-dextran (FD) four hours prior to necropsy. The animals were sacrificed by cardiac puncture and serum was collected. The concentration of […] present in serum was determined by measuring fluorescence intensity on a standard plate reader, and fitting values back to a standard curve.
# [9] = Caco-2, pH 7.4, Mean Recovery A to B
# [10] = Caco-2, pH 7.4, Mean Recovery B to A
Compound,"Diarrhea Score Day 5, % Change vs. Vehicle ([1]; 30 mpk BID oral)","Diarrhea Score Day 6, % Change vs. Vehicle ([1]; 30 mpk BID oral)",Diarrhea Score Day 5 ([1]; 30 mpk BID oral),Diarrhea Score Day 6 ([1]; 30 mpk BID oral),bioavailability [2],Vd [2],EC50 [4],other results
"OCC(CO)NCc1ccc(-c2ccc(-c3cc4nc(O[C@@H]5CO[C@H]6[C@@H]5OC[C@H]6O)[nH]c4cc3Cl)cc2)cc1 [Compound 40, 2-(((4′-(6-chloro-2-(((3R,3aR,6R,6aR)-6-hydroxyhexahydrofuro[3,2-b]furan-3-yl)oxy)-1H-benzo[d]imidazol-5-yl)-[1,1′-biphenyl]-4-yl)methyl)amino)propane-1,3-diol]",−66%,−59%,0.38,0.75,< 10%,< 5 L/kg,–,–
"O=C(NC[C@H](O)[C@@H](O)[C@H](O)[C@H](O)CO)c1ccc(-c2ccc(-c3nc4nc(O[C@@H]5CO[C@H]6[C@@H]5OC[C@H]6O)[nH]c4cc3Cl)cc2)cc1 [Compound 1, 4′-(6-chloro-2-(((3R,3aR,6R,6aR)-6-hydroxyhexahydrofuro[3,2-b]furan-3-yl)oxy)-1H-imidazo [4,5-b]pyridin-5-yl)-N-((2S,3R,4R,5R)-2,3,4,5,6-pentahydroxyhexyl)-[1,1′-biphenyl]-4-carboxamide]",–,–,–,–,< 1%,< 5 L/kg,0.05 nM,"% Change in Average Total AUC (0-90 min) vs. Vehicle [3]: −7.5%; change in blood glucose AUC vs. vehicle / systemic AMPK activation (in words) [3]: do not lead to activation of AMPK in skeletal muscle; permeability (in words) ([5]; Caco-2): low permeability; Efflux Ratio ([5]; human, Caco-2, 2 h, 2 μM, pH 7.4): >2.90; Papp A→B at 2 h, 2 μM [6]: < 0.25 ×10⁻⁶ cm/s; Papp B→A at 2 h, 2 μM [6]: 0.73 ×10⁻⁶ cm/s; efflux ratio at 2 h, 2 μM ([6]; Caco-2, pH 7.4, Efflux Ratio): > 2; recovery at 2 h, 2 μM [6, 9]: < 82.6%; recovery at 2 h, 2 μM [6, 10]: 89.9%; reduction of FITC-dextran permeation relative to vehicle ([7]; 0.1 μM): 33%; reduction of FITC-dextran permeation relative to vehicle ([7]; 10 μM): 35%"
"O=P(O)(O)c1ccc(-c2ccc(-c3nc4nc(O[C@@H]5CO[C@H]6[C@@H]5OC[C@H]6O)[nH]c4cc3Cl)cc2)cc1 [Compound 2, (4′-(6-chloro-2-(((3R,3aR,6R,6aR)-6-hydroxyhexahydrofuro[3,2-b]furan-3-yl)oxy)-1H-imidazo[4,5-b]pyridin-5-yl)-[1,1′-biphenyl]-4-yl)phosphonic acid]",–,–,–,–,< 1%,< 5 L/kg,1.4 nM,% Change in Average Total AUC (0-90 min) vs. Vehicle [3]: +6.6%; change in blood glucose AUC vs. vehicle / systemic AMPK activation (in words) [3]: do not lead to activation of AMPK in skeletal muscle
"O=C(NCC[N+]12CCN(CC1)CC2)c1ccc(-c2ccc(-c3cc4nc(O[C@@H]5CO[C@H]6[C@@H]5OC[C@H]6O)[nH]c4cc3Cl)cc2)cc1 [Compound 32, 1-(2-(4′-(6-chloro-2-(((3R,3aR,6R,6aR)-6-hydroxyhexahydrofuro[3,2-b]furan-3-yl)oxy)-1H-benzo [d]imidazol-5-yl)-[1,1′-biphenyl]-4-carboxamido)ethyl)-1,4-diazabicyclo[2.2.2]octan-1-ium formate]",–,–,–,–,< 1%,< 1 L/kg,–,"Diarrhea Score Day 5, % Change vs. Vehicle ([1]; 20 mpk BID oral): −43%; Diarrhea Score Day 6, % Change vs. Vehicle ([1]; 20 mpk BID oral): −52%; Diarrhea Score Day 5 ([1]; 20 mpk BID oral): 0.63; Diarrhea Score Day 6 ([1]; 20 mpk BID oral): 0.88"
"O=C(NCCOCCO)c1ccc(-c2ccc(-c3cc4nc(O[C@@H]5CO[C@H]6[C@@H]5OC[C@H]6O)[nH]c4cc3Cl)cc2)cc1 [Compound 31, 4′-(6-chloro-2-(((3R,3aR,6R,6aR)-6-hydroxyhexahydrofuro[3,2-b]furan-3-yl)oxy)-1H-benzo[d]imidazol-5-yl)-N-(2-(2-hydroxyethoxy)ethyl)-[1,1′-biphenyl]-4-carboxamide]",−67%,−61%,0.43,0.63,< 10%,< 5 L/kg,0.85 nM,"Change in Fluorescence Intensity vs. Vehicle [8]: −41%; half-life [2]: 1.7 h; permeability (in words) ([5]; Caco-2): low permeability; Papp A→B at 2 h, 2 μM [6]: 0.115 ×10⁻⁶ cm/s; Papp B→A at 2 h, 2 μM [6]: 31.7 ×10⁻⁶ cm/s; recovery at 2 h, 2 μM [6, 9]: 83.2%; recovery at 2 h, 2 μM [6, 10]: 97.8%"
"CC(C)(C)NCC(O)COc1cccc2c1CC(O)C(O)C2 (stereo not drawn) [Nadolol, nadolol, reference compound]",–,–,–,–,–,–,–,"Mean Recovery A to B ([5]; Caco-2): 97.74%; Mean Papp A to B ([5]; Caco-2, pH 7.4): 0.08 10^−6 cm/s"
"OCC1(CO)CCN(Cc2ccc(-c3ccc(-c4cc5nc(O[C@@H]6CO[C@H]7[C@@H]6OC[C@H]7O)[nH]c5cc4Cl)cc3)cc2)CC1 [Compound 60, (1-((4′-(6-chloro-2-(((3R,3aR,6R,6aR)-6-hydroxyhexahydrofuro[3,2-b]furan-3-yl)oxy)-1H-benzo[d]imidazol-5-yl)-[1,1′-biphenyl]-4-yl)methyl)piperidine-4,4-diyl)dimethanol]",−71%,−66%,0.38,0.38,< 15%,< 5 L/kg,0.85 nM,–
